Experimental data from patent US11786542B2, “Methods for enhancing cytotoxic cancer therapy through modulation of purine biosynthesis pathways” (NORTHWESTERN UNIVERSITY, priority 2019, dated 2023).
“Also recorded” adds a separate entry of the source.

Experiments:
orthotopic GBM43 = test: Orthotopic PDX GBM mouse model, endpoint survival, IMPDH inhibitor with TMZ; type: in vivo, Mice; conditions: for survival benefits in vivo and vitro models: mouse
Protocol: (§1) FIG. 10A-10C. […] A) Pictorial representation of cell viability post therapy. B) Cell viability measured by trypan blue exclusion method. C) Mice with orthotopic GBM43 treated with vehicle DMSO, TMZ 2.5 mg/kg for 5 days, MMF (20 mg/kg for 4 days and in combination and monitored by endpoint survival.
(§2) Glioblastoma, a universally lethal primary brain tumor, harnesses cellular plasticity to drive therapeutic adaptation. Critical factors in developing this plasticity are histone modifiers such as Polycomb Repressor Complex 2 protein EZH2. […] Concurrently, we observed an increase in H3K27ac at the transcription start site of ARL13B as well as a lack of H3K27 tri-methylation, EZH2's canonical histone mark. Based on this we hypothesize that EZH2 could be non-canonically regulating ARL13B to allow for cellular plasticity and ultimately drive therapeutic adaptation. […] Searching for a mechanism behind this survival benefit, we preformed mass spectrometry on an ARL13B pulldown in a patient derived xenograft line during TMZ therapy and identified inosine monophosphate dehydrogenase 2 (IMPDH2), the rate-limiting enzyme in de-novo guanine nucleotide biosynthesis, as a significant binding partner of ARL13B during TMZ chemotherapy (p-value<0.0001). Probing this novel interaction further we examined the de-novo and salvage purine biosynthesis pathways using radiolabeled carbon tracing experiments. […] This synthesis shift forces cells to uptake and incorporate purines that have been alkylated by TMZ therapy which increases DNA double strand breaks and ultimately impairs therapeutic adaptation.

PDX GBM lines = test: Cell viability of PDX GBM lines post therapy, trypan blue exclusion; type: cell-based; conditions: CellCept combined with TMZ
Protocol: as §1

[1] = in vivo; cited from earlier work
EAE and stroke = conditions: cited from earlier work
salvage pathway = test: [3H]-hypoxanthine isotope tracing, salvage purine biosynthesis; type: cell-based; conditions: cells with endogenous ARL13B; listed as temozolomide
Protocol: (§3) FIG. 4A-4E. IMPDH2-ARL13B interaction during TMZ therapy influences purine biosynthesis. A) Schematic diagram of purine biosynthesis. Isotope tracing analysis performed with ^14C glycine for de novo and ^3H hypoxanthine for salvage pathway. […] D)^14C glycine incorporation via de novo synthesis of the DNA and RNA with or without TMZ therapy in the presence and absence of ARL13B. U251 GBM cells were pulsed for 6 h with ^14C glycine, DNA and RNA were isolated, and ^14C incorporation was measured by […]. E) ^3H hypoxanthine incorporation via salvage pathway.
2.5. The ARL13B-IMPDH2 interaction during TMZ therapy alters the path to purine biosynthesis: IMPDH controls the gateway to purine nucleotides, by analyzing the rate-limiting reaction of de novo GTP biosynthesis at the inosine monophosphate (IMP) metabolic branch point^36 (FIG. 4A). This critical reaction appears to be present in every organism. Alternatively, purine bases, released by hydrolytic degradation of nucleic acids and nucleotides, can be salvaged and recycled. This is an energy-saving pathway for purine biosynthesis, and its inefficiency can result in many pathological conditions including Lesch-Nyhan syndrome^37. In cancer, rapid cell division results in a high demand for purine nucleotides that generally cannot be sustained by salvage pathways, which may explain the importance of IMPDH in cancer^14, 38. […]

de novo pathway = test: [14C]-glycine isotope tracing, de novo purine biosynthesis; type: cell-based; conditions: for de novo pathway activity during TMZ therapy: cells with endogenous ARL13B
Protocol: as §3
2.5. The ARL13B-IMPDH2 interaction during TMZ therapy alters the path to purine biosynthesis: IMPDH controls the gateway to purine nucleotides, by analyzing the rate-limiting reaction of de novo GTP biosynthesis at the inosine monophosphate (IMP) metabolic branch point^36 (FIG. 4A). This critical reaction appears to be present in every organism. Alternatively, purine bases, released by hydrolytic degradation of nucleic acids and nucleotides, can be salvaged and recycled. This is an energy-saving pathway for purine biosynthesis, and its inefficiency can result in many pathological conditions including Lesch-Nyhan syndrome^37. In cancer, rapid cell division results in a high demand for purine nucleotides that generally cannot be sustained by salvage pathways, which may explain the importance of IMPDH in cancer^14, 38. This information, combined with our finding of a direct interaction between ARL13B and IMPDH2 during TMZ therapy, allows us to postulate that such an interaction may be playing a role in regulation of purine biosynthesis pathway. To investigate further, we first performed [^14C]-glycine (de novo) and [^3H]-hypoxanthine (salvage) pulse-chase study during therapy, which allowed us to measure the activity of specific purine biosynthesis pathways^39 (FIG. 4A). […] Moreover, removal or ARL13B enhanced the salvage activity about 5-fold (FIG. 4E, p<0.0005). Based on this, we conclude that ARL13B may act as a negative regulator for the salvage pathway and is play a role in therapy-induced switch of the purine biosynthesis.

IMPDH2 = IMPDH2 enzymatic activity, formazin reduction assay; type: biochemical; conditions: over 8 days of TMZ exposure (p<0.001)
Excerpt: as §2

[2] = test system: ARL13B knockdown PDX GBM (GBM5, GBM6); test: Intracranial ARL13B knockdown PDX xenografts treated with TMZ, endpoint survival; type: in vivo, nu/nu mice; conditions: TMZ 2.5 mg/kg for 5 days
Protocol: (§4) FIG. 5A-5D. Removal of ARL13B sensitizes GBM to TMZ therapy. […] B) Quantitative measure of H2X foci of different conditions counted in 100 cells. C) and D) shRNA mediated knockdown of ARL13B PDX lines were implanted in the nu/nu mice intracranially. After tumor establishment (7 days post implantation measured by BLI) animals were treated with suboptimal dose of TMZ (2.5 mg/kg) for 5 consecutive days. Animals were monitored for endpoint survival. C) GBMS PDX which is a mesenchymal subtype and D) GBM6, a classical subtype.
2.6. ARL13B KD enhances the therapeutic efficacy of TMZ both in vitro and in vivo: The monofunctional DNA-alkylating agent TMZ is a commonly used chemotherapeutic drug and the gold standard of treatment for GBM. Although the activity of the DNA repair enzyme O6-methylguanine-DNA methyltransferase (MGMT) has been identified as the critical modulator to determine the GBM sensitivity to TMZ, all GBMs, even those with MGMT inactivation, eventually stop responding to TMZ. This begs question whether an alternative mechanism of resistance may be involved in GBM. The anti-GBM activity of TMZ is predominately provoked by O6-methylguanine-DNA adducts. […] After tumor engraftment animals were treated with vehicle control or TMZ (2.5 mg/kg) for 5 consecutive days and animals were monitored by endpoint survival. […]

[3] = test system: ARL13B knocked out GBM lines; test: DNA damage by H2X foci in ARL13B knockout/knockdown GBM cells treated with TMZ; type: cell-based; conditions: ARL13B knockout/knockdown cells vs control cells, both exposed to TMZ
Protocol: as §4
Creation of this alkylated purine causes a base pair mismatch in DNA (G-T) which results in DNA damage and cell cycle arrest and apoptosis (PMID: 15322239). Because of the nature of temozolomide chemotherapy-induced DNA damage, we chose to examine whether or not salvage pathway synthesis carried an implicit sensitivity to this alkylating chemotherapy. […] However, it did decrease the utilization of the salvage pathway by roughly 50%. Next, we subjected our ARL13B knockout cells to a standard dose of Temozolomide chemotherapy and checked whether they had more DNA double-stranded breaks by utilizing gamma h2ax foci counting. […]
2.6. […] After tumor engraftment animals were treated with vehicle control or TMZ (2.5 mg/kg) for 5 consecutive days and animals were monitored by endpoint survival. […]

[4] = patients; cited from earlier work
Glioblastoma (GBM) = conditions: combined with radiotherapy after surgery; cited from earlier work
IMPDH = conditions: cited from earlier work
GBM flank model = test: GBM flank model, tumor growth, EZH2 inhibitor plus TMZ; type: in vivo
Excerpt: FIG. 1A-1D. ARL13B is a downstream target for EZH2 non-canonical function. A) EZH2 expression is elevated during (day 3-D3) and post (D18) TMZ therapy. Therapy resistant glioma stem cell (CD133+) express high EZH2 post therapy (left). […] C) To examine the role of non-canonical function in TMZ resistance GBM43 (proneural) and GBM6 (Classical) PDX GBM treated with TMZ or TMZ+EZH2 inhibitor and subject to RNAseq analysis. […] We identified ARL13B as the top hit from this screen. D) shRNA mediated knockdown of EZH2 leads to downregulation of ARL13B.
2.1. […] One such epigenetic regulator is the Polycomb Repressor Complex 2 (PRC2), a critical family protein that is essential for maintaining the self-renewal ability of adult and embryonic stem cells^22, 23. This complex is involved in transcription silencing via chromatin compaction by catalyzing the methylation of the histone H3 at lysine 27. The catalytic subunit of the PRC2 complex, Enhancer Of Zeste 2 (EZH2), has been linked to aggressive progression of multiple cancers, including GBMs^24 25. The function of EZH2 is closely related to the cancer stem cell (CSC) phenotype, mesenchymal transition and radioresistance, which is associated with post-surgery relapse of GBM^24-26. However, its role in promoting chemoresistance properties in GBM is yet to be investigated. […]

[5] = Blood-brain barrier crossing of the EZH2 inhibitor, orthotopic PDX model; type: in vivo
Excerpt: 2.1. […] One such epigenetic regulator is the Polycomb Repressor Complex 2 (PRC2), a critical family protein that is essential for maintaining the self-renewal ability of adult and embryonic stem cells^22, 23. This complex is involved in transcription silencing via chromatin compaction by catalyzing the methylation of the histone H3 at lysine 27. The catalytic subunit of the PRC2 complex, Enhancer Of Zeste 2 (EZH2), has been linked to aggressive progression of multiple cancers, including GBMs^24 25. The function of EZH2 is closely related to the cancer stem cell (CSC) phenotype, mesenchymal transition and radioresistance, which is associated with post-surgery relapse of GBM^24-26. However, its role in promoting chemoresistance properties in GBM is yet to be investigated. To this end, we have examined the role of the EZH2-PRC2 complex in promoting TMZ resistance.

In the case of `COc1c(C)c2c(c(O)c1C/C=C(\C)CCC(=O)OCCN1CCOCC1)C(=O)OC2` [CellCept, mycophenolic mofetil], the “therapeutic efficacy of TMZ-based chemotherapy, animal model” value (orthotopic GBM43; CellCept combined with TMZ, PDX model (FIG. 10)) is reported as “corporation between CellCept and TMZ; also recorded: significantly improved the therapeutic efficacy of TMZ-based anti-GBM chemotherapy”, the “survival benefits in vivo and vitro models” value (orthotopic GBM43) is reported as “robust survival benefits” and the median survival (orthotopic GBM43; orthotopic PDX mouse model, only when in combination with TMZ (p<0.01)) is reported as “significantly extended median survival”. For the same compound, the “sensitization to TMZ therapy in vitro” value (PDX GBM lines) was “sensitizes PDX GBM lines to TMZ therapy; also recorded: significantly improved the therapeutic efficacy of TMZ-based anti-GBM chemotherapy”, the “crossing of the blood-brain barrier (BBB)” value [1] was “ability to cross the blood-brain barrier” and the “neuroprotection against inflammatory conditions” value (EAE and stroke) was “promoted neuroprotection”.
For `Cn1nnc2c(C(N)=O)ncn2c1=O` [TMZ, 3,4-dihydro-3methyl-4-oxoimidazo[5,1-d]-1,2,3,5-tetrazine-8-carboxamide], the “decrease of salvage pathway activity during TMZ therapy” value (salvage pathway) was “roughly 50%”, the “decrease of de novo pathway usage in a TMZ specific manner” value (de novo pathway; ARL13B knockdown / removal) was “about 50%” and the “de novo pathway activity in a TMZ-specific manner” value (de novo pathway; ARL13B knocked-out cells) was “inhibited in a TMZ-specific manner; also recorded: reduced significantly in a TMZ-specific manner”. The “de novo pathway activity during TMZ therapy” value (de novo pathway) was “remained unchanged; also recorded: did not alter the de novo synthesis pathway”, the “de novo pathway activity during TMZ therapy” value (de novo pathway; listed as temozolomide) was “did not statistically change” and the IMPDH2 enzymatic activity (IMPDH2) was “decrease in activity”. For the same compound, the “improvement in overall survival compared to control” value ([2]; classical subtype GBM6, ARL13B KD) was 39%, the “animals that did not develop any tumor” value ([2]; mesenchymal subtype, ARL13B KO GBM) was 80% and the “DNA damage / double-strand breaks (H2X foci)” value [3] was “robust increase in DNA double-strand breaks; also recorded: significantly elevated DNA damage”. For the same compound, the “DNA damage / double-strand breaks (H2X foci)” value ([3]; listed as Temozolomide) was “significantly more foci”, the “peak cerebral spinal fluid and serum concentrations” value [4] was 50 µM and the “improvement of overall survival time” value (Glioblastoma (GBM)) was 4-6 months.
In the case of `NC(=O)c1ncn([C@@H]2O[C@H](CO)[C@@H](O)[C@H]2O)c1O` [Mizoribine, mizoribine], the “survival benefits in vivo and vitro models” value (orthotopic GBM43) is reported as “robust survival benefits”.
For `CC[C@H](CC#N)OC(=O)N[C@@H](C)c1cccc(NC(=O)Nc2ccc(-c3cnco3)c(OC)c2)c1` [AVN944], the “IMPDH activity as compared to CellCept” value (IMPDH) is given as “enhanced IMPDH activity as compared to CellCept”.
With `CCCc1cc(C)[nH]c(=O)c1CNC(=O)c1cc(-c2ccc(N3CCN(C(C)C)CC3)nc2)cc2c1cnn2C(C)C` [EZH2 inhibitor] the “tumor growth / therapeutic efficacy of TMZ in flank model” value (GBM flank model) was “can block the tumor growth; also recorded: significantly enhanced the therapeutic efficacy of TMZ” and the “crossing of the blood-brain barrier” value [5] was “failed to cross the blood-brain barrier”.
